Assay results taken from ChEMBL document CHEMBL1909046, “DrugMatrix in vitro pharmacology data”.

Key:
Estrogen receptor = molecular target: T1, Estrogen receptor (Homo sapiens, UniProt P03372); conditions: sf9; also: in other assays of this panel Not Active means under 50% inhibition at 10 µM
T1 sequence (P03372 whole entry): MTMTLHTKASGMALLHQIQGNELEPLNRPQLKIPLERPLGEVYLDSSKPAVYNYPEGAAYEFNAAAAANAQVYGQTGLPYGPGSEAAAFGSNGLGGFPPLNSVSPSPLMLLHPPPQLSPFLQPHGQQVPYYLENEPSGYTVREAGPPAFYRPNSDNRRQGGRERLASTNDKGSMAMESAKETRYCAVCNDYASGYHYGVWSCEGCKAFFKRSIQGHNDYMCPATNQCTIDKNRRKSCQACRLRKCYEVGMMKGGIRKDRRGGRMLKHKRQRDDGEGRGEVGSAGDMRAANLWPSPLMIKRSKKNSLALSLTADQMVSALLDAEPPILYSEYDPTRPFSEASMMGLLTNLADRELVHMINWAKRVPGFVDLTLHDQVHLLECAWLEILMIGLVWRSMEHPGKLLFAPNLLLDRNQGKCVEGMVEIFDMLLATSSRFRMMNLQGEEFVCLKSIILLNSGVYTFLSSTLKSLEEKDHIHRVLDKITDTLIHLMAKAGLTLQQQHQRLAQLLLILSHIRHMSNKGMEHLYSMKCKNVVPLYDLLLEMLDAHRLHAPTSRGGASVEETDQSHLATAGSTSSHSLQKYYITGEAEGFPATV

[1] = molecular target: Receptor tyrosine-protein kinase erbB-2 (Homo sapiens, UniProt P04626); experiment: biochemical; type: cell-based, Insect cells; conditions: insect cells;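 also: inhibition of HER2 kinase enzyme activity, measured with Poly(Glu:Tyr) as the phosphorylation substrate; in other assays of this panel Not Active means under 50% inhibition at 10 µM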
[2] = molecular target: T2, Receptor-type tyrosine-protein phosphatase C (Homo sapiens, UniProt P08575); parameters: species or system Escherichia coli;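 also: inhibition of CD45 enzyme activity measured using DiFMUP as substrate; in other assays of this panel Not Active means under 50% inhibition at 10 µM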
T2 sequence (P08575 whole entry): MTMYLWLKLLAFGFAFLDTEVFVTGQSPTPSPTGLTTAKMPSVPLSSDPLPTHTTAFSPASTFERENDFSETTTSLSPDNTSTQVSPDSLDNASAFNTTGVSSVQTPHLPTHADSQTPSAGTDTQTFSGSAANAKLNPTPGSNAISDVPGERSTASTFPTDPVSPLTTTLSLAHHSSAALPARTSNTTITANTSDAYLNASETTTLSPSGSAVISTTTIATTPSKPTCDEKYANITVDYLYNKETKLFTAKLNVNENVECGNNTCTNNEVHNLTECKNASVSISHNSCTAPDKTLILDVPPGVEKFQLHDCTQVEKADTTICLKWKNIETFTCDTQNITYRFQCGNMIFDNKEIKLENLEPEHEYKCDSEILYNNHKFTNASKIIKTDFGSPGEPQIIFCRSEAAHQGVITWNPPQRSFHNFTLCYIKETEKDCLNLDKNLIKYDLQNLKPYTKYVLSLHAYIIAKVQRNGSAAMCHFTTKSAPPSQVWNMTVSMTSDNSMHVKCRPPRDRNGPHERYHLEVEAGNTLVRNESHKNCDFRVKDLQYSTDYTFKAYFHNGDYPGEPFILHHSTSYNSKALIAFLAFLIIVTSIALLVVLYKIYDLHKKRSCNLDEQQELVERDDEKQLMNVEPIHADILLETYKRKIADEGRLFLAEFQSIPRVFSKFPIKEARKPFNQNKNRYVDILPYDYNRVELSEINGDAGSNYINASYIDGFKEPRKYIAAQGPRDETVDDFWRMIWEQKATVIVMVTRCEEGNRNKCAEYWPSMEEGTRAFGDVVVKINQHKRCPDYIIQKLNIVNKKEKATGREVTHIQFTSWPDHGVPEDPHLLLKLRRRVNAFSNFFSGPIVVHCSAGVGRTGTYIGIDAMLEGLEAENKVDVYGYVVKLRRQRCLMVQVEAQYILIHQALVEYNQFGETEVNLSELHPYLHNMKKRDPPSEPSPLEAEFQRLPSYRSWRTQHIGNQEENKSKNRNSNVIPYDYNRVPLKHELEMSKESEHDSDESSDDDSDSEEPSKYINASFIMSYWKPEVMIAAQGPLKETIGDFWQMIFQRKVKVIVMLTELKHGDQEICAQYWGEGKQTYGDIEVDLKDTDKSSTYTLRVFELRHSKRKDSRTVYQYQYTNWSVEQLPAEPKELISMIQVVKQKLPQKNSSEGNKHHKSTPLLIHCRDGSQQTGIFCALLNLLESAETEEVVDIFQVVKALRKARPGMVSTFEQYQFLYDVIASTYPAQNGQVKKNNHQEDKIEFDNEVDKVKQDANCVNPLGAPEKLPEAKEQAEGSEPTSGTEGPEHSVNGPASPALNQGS

[3] = DRUGMATRIX: GABAA, Chloride Channel, TBOB radioligand binding (ligand: [3H] TBOB); type: cell membranes, Rattus norvegicus, Wistar, Cerebral cortex, Membrane; conditions: Not Active = under 50% inhibition at 10 µM
[4] = DRUGMATRIX: Phosphodiesterase PDE3 enzyme inhibition (substrate: [3H]cAMP + cAMP); type: tissue-based, Homo sapiens; conditions: platelet; Not Active = under 50% inhibition at 10 µM
Cytochrome P450 2D6 = Cytochrome P450 2D6 (Homo sapiens, UniProt P10635); conditions: bti-tn-5b1-4; also: in other assays of this panel Not Active means under 50% inhibition at 10 µM
Melanocortin receptor 4 = Melanocortin receptor 4 (Homo sapiens, UniProt P32245); type: cell membranes, Membrane; conditions: hek293; also: in other assays of this panel Not Active means under 50% inhibition at 10 µM
Insulin receptor = Insulin receptor (Rattus norvegicus, UniProt P15127); type: cell membranes, Wistar, Liver, Membrane; also: in other assays of this panel Not Active means under 50% inhibition at 10 µM
Insulin receptor, sequence (P15127 27-759 limits assumed): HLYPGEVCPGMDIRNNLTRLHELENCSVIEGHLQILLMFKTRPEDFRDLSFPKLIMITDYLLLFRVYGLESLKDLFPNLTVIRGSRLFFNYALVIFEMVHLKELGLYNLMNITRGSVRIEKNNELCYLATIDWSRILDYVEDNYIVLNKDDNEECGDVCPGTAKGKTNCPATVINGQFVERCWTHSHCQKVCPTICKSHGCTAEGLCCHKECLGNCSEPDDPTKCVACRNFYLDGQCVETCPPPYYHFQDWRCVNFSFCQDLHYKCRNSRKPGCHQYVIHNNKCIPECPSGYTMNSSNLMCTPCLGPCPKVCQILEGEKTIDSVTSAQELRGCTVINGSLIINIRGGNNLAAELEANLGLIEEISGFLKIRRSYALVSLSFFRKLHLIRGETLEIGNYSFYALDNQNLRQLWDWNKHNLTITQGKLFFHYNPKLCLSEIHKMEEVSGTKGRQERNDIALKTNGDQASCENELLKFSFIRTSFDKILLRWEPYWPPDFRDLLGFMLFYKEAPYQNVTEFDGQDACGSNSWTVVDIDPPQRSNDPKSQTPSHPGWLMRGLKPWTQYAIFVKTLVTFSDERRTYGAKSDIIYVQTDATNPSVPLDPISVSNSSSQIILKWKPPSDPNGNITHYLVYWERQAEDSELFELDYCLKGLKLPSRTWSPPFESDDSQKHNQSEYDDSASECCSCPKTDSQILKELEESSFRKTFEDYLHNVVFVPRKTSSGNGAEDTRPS
Insulin receptor, sequence (P15127 764-1383 limits assumed): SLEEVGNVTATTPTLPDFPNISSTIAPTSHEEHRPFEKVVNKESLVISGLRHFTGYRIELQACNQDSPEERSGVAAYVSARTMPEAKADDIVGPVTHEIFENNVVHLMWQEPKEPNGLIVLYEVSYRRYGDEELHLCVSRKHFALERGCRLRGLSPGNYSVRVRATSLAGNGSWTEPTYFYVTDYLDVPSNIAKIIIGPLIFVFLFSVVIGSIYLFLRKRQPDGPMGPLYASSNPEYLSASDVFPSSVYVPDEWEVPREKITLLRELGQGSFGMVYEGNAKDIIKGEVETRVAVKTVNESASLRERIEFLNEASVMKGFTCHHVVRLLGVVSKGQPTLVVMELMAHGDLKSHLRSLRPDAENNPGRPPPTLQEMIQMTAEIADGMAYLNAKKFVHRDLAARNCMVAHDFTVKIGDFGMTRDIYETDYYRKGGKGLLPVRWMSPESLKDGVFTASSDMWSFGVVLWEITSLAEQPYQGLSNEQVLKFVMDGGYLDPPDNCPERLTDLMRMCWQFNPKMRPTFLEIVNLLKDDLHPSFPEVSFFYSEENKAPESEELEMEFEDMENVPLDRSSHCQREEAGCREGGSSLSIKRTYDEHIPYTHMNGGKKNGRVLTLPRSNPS

Receptor tyrosine-protein kinase erbB-2, sequence (P04626 whole entry): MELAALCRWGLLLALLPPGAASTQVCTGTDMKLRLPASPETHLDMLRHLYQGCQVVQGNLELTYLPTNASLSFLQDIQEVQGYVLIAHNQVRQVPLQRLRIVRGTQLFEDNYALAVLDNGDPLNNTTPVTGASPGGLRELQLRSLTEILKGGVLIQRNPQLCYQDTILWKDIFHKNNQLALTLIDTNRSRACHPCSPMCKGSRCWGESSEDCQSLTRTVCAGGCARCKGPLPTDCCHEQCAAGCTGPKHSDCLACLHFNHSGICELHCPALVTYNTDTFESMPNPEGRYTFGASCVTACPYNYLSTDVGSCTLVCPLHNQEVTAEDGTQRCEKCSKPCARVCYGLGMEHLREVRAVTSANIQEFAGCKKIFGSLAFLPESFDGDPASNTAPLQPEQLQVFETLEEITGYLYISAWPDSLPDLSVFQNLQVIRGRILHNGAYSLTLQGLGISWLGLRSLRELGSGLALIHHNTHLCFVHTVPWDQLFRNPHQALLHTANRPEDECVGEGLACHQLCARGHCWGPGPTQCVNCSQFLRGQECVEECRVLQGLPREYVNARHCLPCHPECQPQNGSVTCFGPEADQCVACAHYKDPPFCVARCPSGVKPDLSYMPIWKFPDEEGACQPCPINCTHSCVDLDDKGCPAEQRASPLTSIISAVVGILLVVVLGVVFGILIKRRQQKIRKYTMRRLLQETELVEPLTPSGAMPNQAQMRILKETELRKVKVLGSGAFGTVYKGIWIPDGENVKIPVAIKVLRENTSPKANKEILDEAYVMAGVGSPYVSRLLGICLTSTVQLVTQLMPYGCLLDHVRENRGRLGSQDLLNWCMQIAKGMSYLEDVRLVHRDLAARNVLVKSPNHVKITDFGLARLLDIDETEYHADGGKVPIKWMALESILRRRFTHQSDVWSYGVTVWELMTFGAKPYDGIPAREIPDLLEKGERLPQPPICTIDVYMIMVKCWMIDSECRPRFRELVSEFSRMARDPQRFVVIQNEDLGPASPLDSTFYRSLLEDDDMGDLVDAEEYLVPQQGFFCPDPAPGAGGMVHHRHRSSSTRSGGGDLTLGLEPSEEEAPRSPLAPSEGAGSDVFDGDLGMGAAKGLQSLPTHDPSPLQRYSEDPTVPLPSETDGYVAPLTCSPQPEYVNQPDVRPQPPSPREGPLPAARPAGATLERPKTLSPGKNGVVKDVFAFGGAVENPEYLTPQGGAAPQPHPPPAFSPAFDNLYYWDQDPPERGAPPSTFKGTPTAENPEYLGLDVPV
Cytochrome P450 2D6, sequence (P10635 whole entry): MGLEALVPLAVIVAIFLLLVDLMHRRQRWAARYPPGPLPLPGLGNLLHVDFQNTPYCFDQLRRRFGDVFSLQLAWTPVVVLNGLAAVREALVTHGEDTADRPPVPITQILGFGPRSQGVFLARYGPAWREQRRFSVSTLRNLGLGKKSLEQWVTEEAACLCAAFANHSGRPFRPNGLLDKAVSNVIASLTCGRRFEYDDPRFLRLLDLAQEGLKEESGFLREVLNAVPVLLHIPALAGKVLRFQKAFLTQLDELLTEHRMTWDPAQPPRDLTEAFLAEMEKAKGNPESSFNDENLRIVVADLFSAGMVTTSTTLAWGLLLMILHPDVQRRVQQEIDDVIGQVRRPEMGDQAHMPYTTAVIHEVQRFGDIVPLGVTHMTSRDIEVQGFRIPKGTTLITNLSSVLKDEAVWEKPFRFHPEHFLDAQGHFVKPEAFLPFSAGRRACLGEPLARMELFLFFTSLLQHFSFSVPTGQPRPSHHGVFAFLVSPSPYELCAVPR
Melanocortin receptor 4, sequence (P32245 whole entry): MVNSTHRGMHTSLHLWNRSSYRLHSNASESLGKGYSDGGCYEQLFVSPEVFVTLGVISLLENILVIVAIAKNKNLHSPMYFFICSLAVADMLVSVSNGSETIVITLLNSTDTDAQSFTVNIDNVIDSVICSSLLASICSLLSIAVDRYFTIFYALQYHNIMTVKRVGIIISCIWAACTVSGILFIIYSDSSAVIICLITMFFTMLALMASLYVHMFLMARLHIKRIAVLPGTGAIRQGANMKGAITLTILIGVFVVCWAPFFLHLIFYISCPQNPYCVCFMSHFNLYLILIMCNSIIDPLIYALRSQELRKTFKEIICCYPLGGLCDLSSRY

CC(=O)Oc1ccccc1C(=O)O [ASPIRIN]
Not Active: IC50 (Estrogen receptor) | IC50 [1] | IC50 [2] | IC50 [3] | Ki [3] | IC50 [4] | Ki [4] | IC50 (Cytochrome P450 2D6) | Ki (Cytochrome P450 2D6) | IC50 (Melanocortin receptor 4) | IC50 (Insulin receptor)

CC(=O)OC[C@H]1O[C@@H](n2ncc(=O)[nH]c2=O)[C@H](OC(C)=O)[C@@H]1OC(C)=O [AZARIBINE]
Not Active: IC50 (Estrogen receptor) | IC50 [1] | IC50 [2] | IC50 [3] | Ki [3] | IC50 [4] | Ki [4] | IC50 (Cytochrome P450 2D6) | Ki (Cytochrome P450 2D6) | IC50 (Melanocortin receptor 4) | IC50 (Insulin receptor)

O=C(O)CCNC(=O)c1ccc(/N=N/c2ccc(O)c(C(=O)O)c2)cc1 [BALSALAZIDE]
Not Active: IC50 (Estrogen receptor) | IC50 [1] | IC50 [2] | IC50 [3] | Ki [3] | IC50 [4] | Ki [4] | IC50 (Cytochrome P450 2D6) | Ki (Cytochrome P450 2D6) | IC50 (Melanocortin receptor 4) | IC50 (Insulin receptor)

ClC(Cl)(Cl)Cl [CARBON TETRACHLORIDE]
Not Active: IC50 (Estrogen receptor) | IC50 [1] | IC50 [2] | IC50 [3] | Ki [3] | IC50 [4] | Ki [4] | IC50 (Cytochrome P450 2D6) | Ki (Cytochrome P450 2D6) | IC50 (Melanocortin receptor 4) | IC50 (Insulin receptor)

CNC1=Nc2ccc(Cl)cc2C(c2ccccc2)=[N+]([O-])C1 [CHLORDIAZEPOXIDE]
Not Active: IC50 (Estrogen receptor) | IC50 [1] | IC50 [2] | IC50 [3] | Ki [3] | IC50 [4] | Ki [4] | IC50 (Cytochrome P450 2D6) | Ki (Cytochrome P450 2D6) | IC50 (Melanocortin receptor 4) | IC50 (Insulin receptor)

CCCNC(=O)NS(=O)(=O)c1ccc(Cl)cc1 [CHLORPROPAMIDE]
Not Active: IC50 (Estrogen receptor) | IC50 [1] | IC50 [2] | IC50 [3] | Ki [3] | IC50 [4] | Ki [4] | IC50 (Cytochrome P450 2D6) | Ki (Cytochrome P450 2D6) | IC50 (Melanocortin receptor 4) | IC50 (Insulin receptor)

O=C(O)CC(O)(CC(=O)O)C(=O)O [CITRIC ACID]
Not Active: IC50 (Estrogen receptor) | IC50 [1] | IC50 [2] | IC50 [3] | Ki [3] | IC50 [4] | Ki [4] | IC50 (Cytochrome P450 2D6) | Ki (Cytochrome P450 2D6) | IC50 (Melanocortin receptor 4) | IC50 (Insulin receptor)

CC(C)NCC(O)c1ccccc1Cl (stereo not drawn) [CLORPRENALINE]
Not Active: IC50 (Estrogen receptor) | IC50 [1] | IC50 [2] | IC50 [3] | Ki [3] | IC50 [4] | Ki [4] | IC50 (Cytochrome P450 2D6) | Ki (Cytochrome P450 2D6) | IC50 (Melanocortin receptor 4) | IC50 (Insulin receptor)

CN1C[C@@H]2C[C@H]1CN2c1cc2c(cc1F)c(=O)c(C(=O)O)cn2C1CC1 [DANOFLOXACIN]
Not Active: IC50 (Estrogen receptor) | IC50 [1] | IC50 [2] | IC50 [3] | Ki [3] | IC50 [4] | Ki [4] | IC50 (Cytochrome P450 2D6) | Ki (Cytochrome P450 2D6) | IC50 (Melanocortin receptor 4) | IC50 (Insulin receptor)

O=C(O)c1cc(-c2ccc(F)cc2F)ccc1O [DIFLUNISAL]
Not Active: IC50 (Estrogen receptor) | IC50 [1] | IC50 [2] | IC50 [3] | Ki [3] | IC50 [4] | Ki [4] | IC50 (Cytochrome P450 2D6) | Ki (Cytochrome P450 2D6) | IC50 (Melanocortin receptor 4) | IC50 (Insulin receptor)

CC1=NN(c2ccccc2)C(=O)C1 [EDARAVONE]
Not Active: IC50 (Estrogen receptor) | IC50 [1] | IC50 [2] | IC50 [3] | Ki [3] | IC50 [4] | Ki [4] | IC50 (Cytochrome P450 2D6) | Ki (Cytochrome P450 2D6) | IC50 (Melanocortin receptor 4) | IC50 (Insulin receptor)

CC(C)C[C@H]1C(=O)N2CCC[C@H]2[C@]2(O)O[C@](NC(=O)[C@@H]3C=C4c5cccc6[nH]cc(c56)C[C@H]4N(C)C3)(C(C)C)C(=O)N12 [ERGOCRYPTINE]
Not Active: IC50 (Estrogen receptor) | IC50 [1] | IC50 [2] | IC50 [3] | Ki [3] | IC50 [4] | Ki [4] | IC50 (Cytochrome P450 2D6) | Ki (Cytochrome P450 2D6) | IC50 (Melanocortin receptor 4) | IC50 (Insulin receptor)

CN1CCN(c2c(F)cc3c(=O)c(C(=O)O)cn(CCF)c3c2F)CC1 [FLEROXACIN]
Not Active: IC50 (Estrogen receptor) | IC50 [1] | IC50 [2] | IC50 [3] | Ki [3] | IC50 [4] | Ki [4] | IC50 (Cytochrome P450 2D6) | Ki (Cytochrome P450 2D6) | IC50 (Melanocortin receptor 4) | IC50 (Insulin receptor)
